Results from US11058650B2, “Fatty acid amides for the prevention and/or treatment of steatohepatitis” (FUNDACIÓN RÚBLICA ANDALUZA PARA LA INVESTIGACIÓN DE MÁLAGA …, priority 2014, dated 2021).
Several values for one entry are separate records, joined by “and”; a condition that tells them apart may be missing. Equal values may be shown once. Read-outs that look alike come from different tables or passages of the source.

Tests used:
[1] = biological target: T1, hERG channel (Homo sapiens, UniProt Q12809); experiment: hERG channel functional assay (FluxOR thallium fluorescence); type: cell-based; conditions: HEK-293 cells expressing hERG
T1 construct: expressed in transfected cells; host or cells: HEK293
Method: The hERG channel assay was used to identify if OLHHA may cause cardiotoxicity (FIG. 8). […] FluxOR™ is protected by AM groups which prevent fluorescence outside the cell. When it enters the cell, esterases in the cytosol remove the AM groups, and FluxOR™ will be converted to its active form in which it is capable of binding to thallium, which moves into the cytoplasm through the hERG channel, resulting in the emission of fluorescence. HEK293 cells expressing the hERG channel were seeded in poly-D-lysine-treated, black 96-well plates and incubated for 24 hours. […] Next, 20 μl of FluxOR™ dissolved in the assay buffer were added. The fluorochrome was incubated with the cells for 1 hour at room temperature. Next, the plates were washed with 50 μl of assay buffer and the compound OLHHA at a dilution of 1:200 (2 μl of OLHHA/400 μl of assay buffer) was added using an EP3 station. […] The plates were incubated with OLHHA for 30 minutes and then read in a […], which added 5 μl of stimulation buffer (Tl2SO4+K2SO4), and read the fluorescence for 120 s, which allowed analyzing channel kinetics.

[2] = biological target: CYP2D6 (Homo sapiens, UniProt P10635); experiment: biochemical
[3] = biological target: CYP2C9 (Homo sapiens, UniProt P11712); experiment: P450 cytochrome inhibition fluorometric assay CYP2C9; type: in vitro ADME
Method: However, most human CYPs tolerate acetonitrile. […] OLHHA was tested in triplicate.

[4] = tested on: liver of obese Zucker rats; experiment: Protein levels of lipid metabolism enzymes in the liver of obese Zucker rats; type: in vivo, rat; conditions: change seen in mRNA (reduction)
Method: (§1) All the experiments were carried out in obese (fa/fa) and thin (Fa/?) male Zucker rats 8-9 weeks of age. The animals were placed in individual cages in a room with controlled temperature, humidity and lighting (light/darkness cycles of 12 hours), and with free access to food and water (standard laboratory diet).
(§2) OLHHA was dissolved in a vehicle containing 5% Tween 80 in saline and intraperitoneally (i.p.) administered at a dose of 5 mg/kg (volume of 1 ml/kg body weight) at the beginning of the light cycle (9:00 am-10:00 am) for 15 consecutive days. Two hours after the last injection, the animals were euthanized using sodium pentobarbital (50 mg/kg, i.p.) and blood and liver samples were extracted. The blood was centrifuged at 2100×g for 8 minutes at 4° C. and the obtained plasma was kept at −80° C. for subsequent analysis. The liver samples were also stored at −80° C.

[5] = tested on: obese rats; experiment: Circulating pro-inflammatory cytokine level in obese rats (ELISA); type: in vivo, rat; conditions: 5 mg/kg i.p. 15 days
Method: as §1, §2
Circulating IL-6 and TNF-α levels were measured by means of ELISAs using commercial kits (Abcam).

[6] = tested on: liver of Zucker rats; experiment: Gene expression (RT-qPCR) in the liver of Zucker rats; type: in vivo, rat
Method: as §1, §2
For isolating total RNA from the liver, the samples were homogenized in Trizol and then purified using Qiagen RNeasy Minelute Cleanup Kit (selectively eliminates most molecules smaller than 200 nucleotides), also including a DNAse treatment. The total mRNA concentration was quantified using a spectrophotometer. In all the cases, the A260/280 ratio was between 1.8 and 2. Complementary DNA synthesis was carried out by reverse transcription using the Transcriptor Reverse Transcriptase kit (Transcriptor RT, Roche Diagnostic). For real-time PCR (RT-qPCR), an ABI PRISM® 7300 Real-Time PCR System (Applied Biosystems) and TaqMan probes were used. The single-product amplification was confirmed by means of analyzing the melting curves. The values of each sample were normalized with respect to the beta-actin constitutive gene. The relative quantification was calculated by means of the ΔΔCt method and normalized to the control group. The Taqman probes were obtained from the rat genome database of Applied Biosystems (http://bioinfo.appliedbiosystems.com/genome-database/gene-expression.html): […]

[7] = tested on: obese rats; experiment: Hepatic serum transaminase level in obese rats; type: in vivo, rat; conditions: 5 mg/kg i.p. 15 days
Method: as §1, §2
Commercial kits were used for determining hepatic serum transaminases and they were analyzed in a Hitachi 737 automatic biochemistry analyzer.

[8] = tested on: liver of obese Zucker rats; experiment: Histological evaluation of fatty liver and Caspase-3 in obese Zucker rats; type: in vivo, rat
Method: as §1, §2
The histological analysis of the livers of obese Zucker rats treated with the vehicle or with OLHHA confirmed the biochemistry total fat quantification results.

[9] = tested on: obese rats; experiment: Kidney function-related plasma protein level in obese rats; type: in vivo, rat; conditions: 5 mg/kg i.p. 15 days
Method: as §1, §2
Commercial kits were used for determining serum creatinine and urea and they were analyzed in a Hitachi 737 automatic biochemistry analyzer.

[10] = tested on: Zucker rats; experiment: Liver fat content and plasma triglyceride level of Zucker rats; type: in vivo, rat; conditions: obese Zucker rats, 5 mg/kg once a day 15 days
Method: as §1, §2
The total liver fat content and the plasma triglyceride level were evaluated in thin and obese Zucker rats after a 15-day treatment with OLHHA (5 mg/kg, once a day). The samples for lipid analysis were obtained 2 hours after the last injection.
The Bligh & Dyer method (Bligh and Dyer, 1959) was followed for liver fat quantification. […] The fat content was expressed as % of tissue weight. […]

[11] = biological target: CYP3A4 (Homo sapiens, UniProt P08684); experiment: biochemical
[12] = Body weight gain and food intake in Zucker rats, chronic treatment; type: in vivo, rat; conditions: 5 mg/kg i.p. daily 15 days
Method: as §1, §2
Animals received an injection (i.p.) of vehicle or OLHHA (5 mg/kg) daily for 15 consecutive days. For this experiment, 8 rats were used per group. The total body weight gain (g) and the accumulated food intake (g/kg of body weight) were evaluated daily.

[13] = obese Zucker rats liver, immunohistochemistry
[14] = obese Zucker rats, chronic treatment, vs vehicle

CYP2D6, sequence (P10635 whole entry): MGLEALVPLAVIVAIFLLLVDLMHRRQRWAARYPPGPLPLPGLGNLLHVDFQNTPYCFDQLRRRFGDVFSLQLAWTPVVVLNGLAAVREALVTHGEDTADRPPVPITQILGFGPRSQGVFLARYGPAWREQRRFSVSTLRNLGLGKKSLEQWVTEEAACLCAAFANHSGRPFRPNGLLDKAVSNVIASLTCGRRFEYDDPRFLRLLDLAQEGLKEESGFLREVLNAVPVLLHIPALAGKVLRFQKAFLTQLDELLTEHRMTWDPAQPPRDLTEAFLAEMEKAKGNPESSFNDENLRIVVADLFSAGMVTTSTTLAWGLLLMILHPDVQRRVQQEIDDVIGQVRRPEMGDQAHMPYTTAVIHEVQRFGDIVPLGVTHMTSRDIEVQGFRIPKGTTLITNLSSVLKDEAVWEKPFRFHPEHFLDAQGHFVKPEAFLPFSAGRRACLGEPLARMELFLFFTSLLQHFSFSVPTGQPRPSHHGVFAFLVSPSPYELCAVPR
CYP3A4, sequence (P08684 whole entry): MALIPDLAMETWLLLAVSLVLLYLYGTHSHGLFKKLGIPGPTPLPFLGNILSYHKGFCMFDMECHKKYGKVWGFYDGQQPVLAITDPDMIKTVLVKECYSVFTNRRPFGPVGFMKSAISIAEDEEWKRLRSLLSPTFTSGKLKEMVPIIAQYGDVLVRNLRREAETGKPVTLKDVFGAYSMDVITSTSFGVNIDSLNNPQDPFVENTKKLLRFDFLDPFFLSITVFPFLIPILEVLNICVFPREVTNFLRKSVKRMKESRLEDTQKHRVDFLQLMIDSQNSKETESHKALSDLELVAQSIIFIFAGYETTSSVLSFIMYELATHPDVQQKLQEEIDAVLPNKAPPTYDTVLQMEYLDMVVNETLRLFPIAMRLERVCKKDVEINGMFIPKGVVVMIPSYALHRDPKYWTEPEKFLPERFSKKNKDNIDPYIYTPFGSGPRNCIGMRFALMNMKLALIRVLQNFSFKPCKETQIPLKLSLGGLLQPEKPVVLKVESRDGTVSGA
CYP2C9, sequence (P11712 whole entry): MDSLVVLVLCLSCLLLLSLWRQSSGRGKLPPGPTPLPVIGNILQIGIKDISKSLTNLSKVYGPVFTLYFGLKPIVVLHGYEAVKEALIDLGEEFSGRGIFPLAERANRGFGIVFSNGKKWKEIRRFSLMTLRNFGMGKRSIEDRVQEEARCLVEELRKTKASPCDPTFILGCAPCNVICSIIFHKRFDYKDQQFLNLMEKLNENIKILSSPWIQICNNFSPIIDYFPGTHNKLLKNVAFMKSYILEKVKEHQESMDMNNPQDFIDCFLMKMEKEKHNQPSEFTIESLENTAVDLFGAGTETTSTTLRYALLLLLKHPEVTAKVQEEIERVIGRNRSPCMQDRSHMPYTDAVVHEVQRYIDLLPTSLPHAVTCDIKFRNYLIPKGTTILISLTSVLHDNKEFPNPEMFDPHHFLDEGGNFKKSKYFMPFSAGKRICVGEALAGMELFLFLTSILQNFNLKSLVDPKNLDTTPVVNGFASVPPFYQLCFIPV
T1 sequence (Q12809 whole entry): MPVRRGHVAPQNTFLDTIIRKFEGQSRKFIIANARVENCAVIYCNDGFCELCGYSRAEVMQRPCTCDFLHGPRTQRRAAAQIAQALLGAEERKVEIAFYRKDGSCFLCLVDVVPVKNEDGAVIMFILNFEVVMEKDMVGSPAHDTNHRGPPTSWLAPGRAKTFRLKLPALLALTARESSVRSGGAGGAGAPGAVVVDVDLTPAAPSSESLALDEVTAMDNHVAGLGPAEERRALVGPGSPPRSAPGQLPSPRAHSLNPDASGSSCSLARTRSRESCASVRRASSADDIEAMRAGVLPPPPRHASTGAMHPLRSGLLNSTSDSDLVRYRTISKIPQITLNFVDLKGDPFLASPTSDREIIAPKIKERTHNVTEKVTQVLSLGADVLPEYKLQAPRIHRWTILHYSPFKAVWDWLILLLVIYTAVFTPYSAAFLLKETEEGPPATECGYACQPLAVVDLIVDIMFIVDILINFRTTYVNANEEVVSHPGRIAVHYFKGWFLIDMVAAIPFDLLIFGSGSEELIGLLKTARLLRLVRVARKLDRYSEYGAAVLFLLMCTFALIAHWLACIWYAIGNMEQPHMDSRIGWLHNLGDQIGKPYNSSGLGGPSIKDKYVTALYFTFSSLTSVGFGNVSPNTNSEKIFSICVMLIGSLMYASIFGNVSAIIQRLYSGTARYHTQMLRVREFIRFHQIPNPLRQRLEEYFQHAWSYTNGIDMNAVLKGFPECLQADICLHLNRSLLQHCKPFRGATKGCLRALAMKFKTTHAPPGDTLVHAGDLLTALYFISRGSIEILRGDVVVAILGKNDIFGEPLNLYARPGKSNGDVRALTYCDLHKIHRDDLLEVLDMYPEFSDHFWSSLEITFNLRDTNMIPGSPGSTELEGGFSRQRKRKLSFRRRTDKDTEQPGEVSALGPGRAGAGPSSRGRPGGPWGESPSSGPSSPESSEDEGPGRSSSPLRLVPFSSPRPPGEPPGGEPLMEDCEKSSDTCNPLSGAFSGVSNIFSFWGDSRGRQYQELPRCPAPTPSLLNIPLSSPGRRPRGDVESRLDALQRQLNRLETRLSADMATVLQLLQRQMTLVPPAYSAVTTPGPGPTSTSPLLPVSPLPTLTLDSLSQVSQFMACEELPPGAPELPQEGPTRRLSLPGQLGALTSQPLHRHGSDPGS

## CC(C)COCC(CN(Cc1ccccc1)c1ccccc1)N1CCCC1 (stereo not shown) [bepridil, reference compound]
[1]; human, HEK293 cells expressing the hERG channel, pH 7.4, probe FluxOR fluorescent dye / thallium ions, standard control inhibitors, unit M
  IC50 at 30 min: 2200 nM

## CCCCCCCC/C=C\CCCCCCCC(=O)NC(C)Cc1ccc(O)c(O)c1 (stereo not shown) [OLHHA, N-(1-(3,4-dihydroxyphenyl)propan-2-yl)oleamide]
[2]
  IC50: 23.3 µM and > 10 µM
[3]; degree of inhibition, read-out: CYP2C9 Inhibitor category
  IC50: 1 to 10 µM
[3]; fluorometric assay, maximum dose 105 μM, read-out: CYP2C9 IC50
  IC50: 6.8 µM
[4]
  FAS protein expression level: confirmed at the protein expression level
  HMG-CoAR protein expression level: confirmed at the protein expression level
[5]
  plasma IL6 levels: no changes were detected
[5]; did not reach a degree of significance
  TNF-α level: drop
[6]; 5 mg/kg i.p. 15 days
  ACOX mRNA expression: significant increase
  FAS mRNA expression (fatty acid biosynthesis): significant reduction
  HMG-CoAR mRNA expression (cholesterol biosynthesis): significant reduction
  INSIG2 mRNA expression: significantly increased
  NAPE-PLD mRNA expression: significantly reduced
[6]; chronic treatment
  L-FABP mRNA level: increased
[7]; not statistically significant
  aspartate aminotransferase (AST) level: reduction
[7]; statistically significant (p<0.05)
  alanine aminotransferase (ALT) level: reduction
[7]; vs vehicle
  gamma-glutamyl transpeptidase (GGt): no effect was observed
[8]; [13]
  expression of activated Caspase-3: reduced the expression
  expression of total Caspase-3: reduced the expression
[8]; [14]
  apoptotic activity in liver: reduction in apoptotic activity
  liver fat content (hematoxylin-eosin and oil red staining): reduction in liver fat content
[9]
  creatinine levels: did not affect
[9]; vs vehicle, p<0.001
  urea levels: significant reduction
[10]; five-fold increase in obese vs thin
  circulating triglycerides: prevented these increases
[10]; three-fold increase in obese vs thin
  total liver fat content: prevented these increases
[11]
  IC50: 14.8 µM and > 10 µM
[1]; maximum concentration 150 μM
  IC50: > 150 µM
[12]; obese Zucker rats
  accumulated food intake: did not cause any effect
  body weight gain: did not cause any effect
[12]; thin Zucker rats, starting on the fifth day, vs vehicle
  accumulated food intake: significant reduction
[12]; thin Zucker rats, vs vehicle
  body weight gain: significant inhibition
